Values quoted from earlier work as cited in patent publication EP3646858A1, “ENCAPSULATED FORMULATIONS” (Pharmalink, SL, priority 2017, dated 2019).

Details: association with piperine; inhibition of hepatic and intestinal glucuronidation

increase of the bioavailability of curcumin: 20 fold
SMILES: COc1cc(/C=C/C(=O)CC(=O)/C=C/c2ccc(O)c(OC)c2)ccc1O [curcumin]
